One may read the % inhibition as the drop in the measured response relative to a control, in per cent. High values mean strong suppression, low ones little suppression.

Experimental findings from patent US11840686B2, “Modulation of prekallikrein (PKK) expression” (Ionis Pharmaceuticals, Inc., priority 2013, dated 2023) are described below.

Strand notation (5' to 3'): a small letter for the sugar, then the base; units joined by * are phosphorothioate-linked, units joined directly phosphodiester-linked; [ ] holds rarer units or linkages, { } end groups; capitals alone tell only the bases. e = 2'-O-(2-methoxyethyl) (MOE); [5mC] = 5-methylcytosine; d = 2'-deoxy (DNA)

The test system of one series is human PKK mRNA. Briefly: Antisense inhibition of human PKK mRNA in HepaRG cells, 3,000 nM (Example 1). It counts as cell-based. The settings on record: Table 1; PKK mRNA, HepaRG cells, 3,000 nM, electroporation, ~24 h, relative to untreated control cells. The protocol:
Antisense oligonucleotides were designed targeting a PKK nucleic acid and were tested for their effects on PKK mRNA in vitro. HepaRG™ cells, which are terminally differentiated hepatic cells derived from a human hepatic progenitor cell line and retain many characteristics of primary human hepatocytes (Lubberstedt M. et al., J. Pharmacol. Toxicol. Methods 2011 63: 59-68), were used in the screen.
The chimeric antisense oligonucleotides in the tables below were designed as 5-10-5 MOE gapmers. The gapmers are 20 nucleosides in length, wherein the central gap segment comprises of ten 2′-deoxynucleosides and is flanked by wing segments on the 5′ direction and the 3′ direction comprising five nucleosides each. Each nucleoside in the 5′ wing segment and each nucleoside in the 3′ wing segment has a 2′-O-methoxyethyl modification. The internucleoside linkages throughout each gapmer are phosphorothioate linkages. All cytosine residues throughout each gapmer are 5-methylcytosines. “Start site” indicates the 5′-most nucleoside to which the gapmer is targeted in the human gene sequence. “Stop site” indicates the 3′-most nucleoside to which the gapmer is targeted in the human gene sequence.
Cultured HepaRG™ cells at a density of 20,000 cells per well were transfected using electroporation with 3,000 nM antisense oligonucleotide. After a treatment period of approximately 24 hours, RNA was isolated from the cells and PKK mRNA levels were measured by quantitative real-time PCR. Human primer probe set RTS3454 (forward sequence […], designated herein as SEQ ID NO: 20; reverse sequence […], designated herein as SEQ ID NO: 21; probe sequence […], designated herein as SEQ ID NO: 22) was used to measure mRNA levels. PKK mRNA levels were adjusted according to total RNA content, as measured by RIBOGREEN®. The antisense oligonucleotides were tested in a series of experiments that had similar culture conditions. Results are presented as percent inhibition of PKK, relative to untreated control cells.
Consider “531000 (eA*eA*eG*eA*eA*dA*d[5mC]*dA*d[5mC]*dT*dT*dA*d[5mC]*dA*d[5mC]*eT*eT*e[5mC]*eT*e[5mC]; antisense) [compound 531000]”, for which the “% inhibition” value is recorded as 1%.

For “531001 (eA*eG*eA*eT*eA*dA*dT*d[5mC]*dT*dT*dA*dA*dG*dA*dA*eA*e[5mC]*eA*e[5mC]*eT; antisense) [compound 531001]”, the “% inhibition” value is recorded as 44%.

Regarding “531003 (eA*eA*e[5mC]*e[5mC]*eA*dG*dA*dG*d[5mC]*dT*d[5mC]*d[5mC]*d[5mC]*dT*dT*eG*eT*eG*eT*e[5mC]; antisense) [compound 531003]”, the “% inhibition” value was 49%. Take “531006 (eG*e[5mC]*eT*eT*eG*dT*dT*dT*dT*dT*dG*dT*dT*dG*dT*eG*e[5mC]*eA*eG*eA; antisense) [compound 531006]”: the “% inhibition” value amounted to 49%.

The same series, now with this note: Table 2; PKK mRNA, HepaRG cells, 3,000 nM, electroporation, ~24 h, relative to untreated control cells.
In the case of “531007 (eA*eA*e[5mC]*eA*e[5mC]*dA*dA*dT*dT*dG*d[5mC]*dT*dT*d[5mC]*dT*eT*eG*eG*eA*eG; antisense) [compound 531007]”, the “% inhibition” value was found to be 51%.

In the case of “531008 (eT*eG*e[5mC]*eT*eG*dG*dA*dA*dG*dA*dT*dG*dT*dT*d[5mC]*eA*eT*eG*eT*eG; antisense) [compound 531008]”, the “% inhibition” value amounted to 51%. For “531009 (eT*eT*eT*eG*eT*dT*d[5mC]*d[5mC]*dT*d[5mC]*d[5mC]*dA*dA*d[5mC]*dA*eA*eT*eG*e[5mC]*eG; antisense) [compound 531009]”, the “% inhibition” value amounted to 65%.

Turning to “531010 (eA*eA*eG*eA*eG*dT*dT*dT*dG*dT*dT*d[5mC]*d[5mC]*dT*d[5mC]*e[5mC]*eA*eA*e[5mC]*eA; antisense) [compound 531010]”, the “% inhibition” value stood at 52%. Still for that read-out and setting: as for “531011 (e[5mC]*e[5mC]*eA*eA*eG*dA*dA*dG*dA*dG*dT*dT*dT*dG*dT*eT*e[5mC]*e[5mC]*eT*e[5mC]; antisense) [compound 531011]”, the figure is 0%; as for “531012 (eT*e[5mC]*eT*e[5mC]*e[5mC]*d[5mC]*d[5mC]*dA*dA*dG*dA*dA*dG*dA*dG*eT*eT*eT*eG*eT; antisense) [compound 531012]”, 48%; as for “531013 (e[5mC]*e[5mC]*eA*eG*eG*dG*d[5mC]*d[5mC]*dA*d[5mC]*dT*d[5mC]*dT*d[5mC]*d[5mC]*e[5mC]*e[5mC]*eA*eA*eG; antisense) [compound 531013]”, 56%. The same measure, in the same setting: as for “531014 (eA*eG*e[5mC]*eT*eT*d[5mC]*dA*d[5mC]*d[5mC]*dT*dG*d[5mC]*dA*dG*dG*e[5mC]*eT*e[5mC]*eA*e[5mC]; antisense) [compound 531014]”, the figure is 0%; as for “531015 (eT*eA*eT*eG*eA*dG*dT*dG*dA*d[5mC]*d[5mC]*d[5mC]*dT*d[5mC]*d[5mC]*eA*e[5mC]*eA*e[5mC]*eA; antisense) [compound 531015]”, 52%; as for “531016 (eT*eG*eT*e[5mC]*e[5mC]*dT*dA*dT*dG*dA*dG*dT*dG*dA*d[5mC]*e[5mC]*e[5mC]*eT*e[5mC]*e[5mC]; antisense) [compound 531016]”, 39%. As to “531017 (eA*e[5mC]*eT*eG*eG*dT*dG*dT*d[5mC]*d[5mC]*dT*dA*dT*dG*dA*eG*eT*eG*eA*e[5mC]; antisense) [compound 531017]”, the “% inhibition” value turned out to be 31%.

In the case of “531018 (eG*eA*e[5mC]*e[5mC]*e[5mC]*dA*d[5mC]*dT*dG*dG*dT*dG*dT*d[5mC]*d[5mC]*eT*eA*eT*eG*eA; antisense) [compound 531018]”, the “% inhibition” value worked out at 54%.

“531019 (eG*eT*eG*eA*eG*dG*dA*d[5mC]*d[5mC]*d[5mC]*dA*d[5mC]*dT*dG*dG*eT*eG*eT*e[5mC]*e[5mC]; antisense) [compound 531019]”: the “% inhibition” value is reported as 28%. On to “531020 (eA*eA*eG*e[5mC]*e[5mC]*d[5mC]*dA*dT*d[5mC]*dA*dA*dA*dG*d[5mC]*dA*eG*eT*eG*eG*eG; antisense) [compound 531020]”, for which the “% inhibition” value amounted to 0%.
